Test results from US20240269120A1, “Method for Treating an Autoimmune and Inflammatory Disease” (Cellestia Biotech AG, priority 2021, published 2024).

Legend:
[1] = test system: NSG mice injected with human PBMCs (GvHD); test: Humanized GvHD mouse model, ex vivo pre-treated PBMCs plus in vivo treatment; parameters: GvHD clinical score: Body weight loss (D59) / GvHD clinical score: Paleness (D59) / GvHD clinical score: Posture (D59) / GvHD clinical score: Skin integrity (day 45) / GvHD clinical score: Activity score / GvHD clinical score: Fur texture (day 45): scale not given here; settings: for GvHD clinical score: Body weight loss (D59): label = ex vivo PBMC treatment (7 hrs)/in vivo treatment (3 days), DMSO/Vehicle 2.0; for GvHD clinical score: Paleness (D59) / GvHD clinical score: Activity score / GvHD clinical score: Skin integrity (day 45) / GvHD clinical score: Posture (D59) / GvHD clinical score: Fur texture (day 45) / Cumulative GvHD score: label = ex vivo PBMC treatment/in vivo treatment; for GvHD clinical score: Paleness (D59): DMSO/Vehicle 0.9; for GvHD clinical score: Activity score: DMSO/Vehicle 1.0; for GvHD clinical score: Skin integrity (day 45): DMSO/Vehicle 1.25; for GvHD clinical score: Posture (D59): DMSO/Vehicle 1.3; for GvHD clinical score: Fur texture (day 45): DMSO/Vehicle 1.35; for Cumulative GvHD score: sum of individual scores, DMSO/Vehicle 7.8
Description: Humanized GvHD mouse model: 6-8 weeks old NSG mice were intraperitoneally injected with 10 million human peripheral blood mononuclear cells (PBMCs) as below:
A cumulative GvHD clinical score was calculated by addition of scores for individual parameters (e.g. cumulative score=BWL+posture+activity+fur texture+skin integrity+paleness).
Ex-vivo pre-treatment of PBMCs and in-vivo treatment of mice: Human PBMCs were ex-vivo treated with either DMSO or 6-(4-tert-butylphenoxy)pyridin-3-amine and then intraperitoneally injected into NSG mice. Mice were in vivo treated with different compounds as below: • i. DMSO ex vivo hPBMCs treatment (7 hrs), plus vehicle in vivo treatment • ii. DMSO ex vivo hPBMCs treatment (7 hrs), plus 6-(4-tert-butylphenoxy)pyridin-3-amine in vivo treatment for 3 days • iii. 6-(4-tert-butylphenoxy)pyridin-3-amine ex vivo hPBMCs treatment (7 hrs), plus 6-(4-tert-butylphenoxy)pyridin-3-amine in vivo treatment for 3 days • iv. DMSO ex vivo PBMCs treatment (7 hrs) plus Ruxolitinib in vivo treatment for 3 days • v. 6-(4-tert-butylphenoxy)pyridin-3-amine ex vivo hPBMCs treatment (7 hrs), plus Ruxolitinib in vivo treatment for 3 days
(§1) Following PBMC injections, mice were treated with vehicle or 6-(4-tert-butylphenoxy)pyridin-3-amine or Ruxolitinib starting at day 0. Mice were monitored from 60-85 days for symptoms of GvHD and scored according to a standard clinical scoring system for GvHD (Naserian et al., 2018) (see table 1) and a cumulative clinical score was obtained by addition of clinical score for individual parameters. A maximum score of 6 is measured when reaching endpoint. Cell proliferation assay: The effect of compounds on T cell proliferation was quantified using Cell trace violet (CTV). PBMCs/splenocytes were incubated with CTV for 20 minutes at 37° C. Cells were washed twice with RPMI complete medium. CTV labelled cells were stimulated with anti-CD3 and anti-CD28 antibodies and treated with control or compounds and cultured at 37° C. for 96 hours. The cell division index was measured by flow cytometry.

[2] = test system: Treg cells; test: Treg expansion in activated human PBMC cultures (anti-CD3/anti-CD28, flow cytometry); format: cell-based; settings: anti-CD3 and anti-CD28, 96 hours, control 0%
Description: (§2) Human PBMCs and mouse splenocyte in vitro stimulation and treatment: Human peripheral blood mononuclear cells (PBMCs) and mouse splenocytes from donors were stimulated in vitro with anti-CD3 and anti-CD28 antibodies. The stimulated cells were simultaneously treated with compounds for 96 hours. The T cells were profiled for different cell surface and intracellular markers and proliferation by flow cytometry.
(§3) Flow cytometry analysis: Flow cytometry analysis was performed to quantify cell surface and intracellular markers expression and measure cell division index.
Viability staining: Cells were transferred into a 96 well conical bottom plate and washed with serum free PBS1×. Cells were incubated with Zombie NIR (Biolegend #423105)+FC block ([…]) for 20 minutes at 4° C. Cells were washed with staining medium (SM) (1×HBSS, 2.5 mM EDTA, 2% NBS
Cell surface marker staining: Cells were stained with antibodies against cell surface markers (CD3, CD4, CD8, CD25, Biolegend or ThermoFisher) for 20 minutes at 4° C. Cells were washed with SM before continuing with nuclear staining.
FOXP3 nuclear staining: Cells were fixed and permeabilized with Foxp3 Transcription Factor Staining Buffer Set (ThermoFisher #00-5523) for 20 minutes at room temperature. […] Results are finally analysed with the software FlowJo v.10.7.1.

[3] = test system: activated CD4 T cells; test: Cell proliferation assay (Cell trace violet), activated CD4 T cells; format: cell-based; settings: control 0%
Description: as §1, §3

[4] = test system: activated CD8 T cells; test: Cell proliferation assay (Cell trace violet), activated CD8 T cells; format: cell-based; settings: control 0%
Description: as §1, §3

[5] = test system: IL-6; test: ELISA of supernatant from activated human PBMC cultures: IL-6; format: cell-based; settings: control 0%
Description: as §2
(§4) ELISA assay: Supernatant from activated human PBMC cultures described above was separated from cells at the end of culture time. Key cytokines (IL-6, IFN-γ, IL-17) were quantified using sandwich ELISA reagents set (Diaclone) following manufacturer's instruction manual.

[6] = test system: IL-17; test: ELISA of supernatant from activated human PBMC cultures: IL-17; format: cell-based; settings: control 0%
Description: as §2, §4

[7] = test system: IFNG; test: ELISA of supernatant from activated human PBMC cultures: IFNG; format: cell-based; settings: control 0%
Description: as §2, §4

[8] = test system: irradiated Balb/c mice transplanted with TCD-BM + splenocytes from C57Bl6 mice (GvHD); test: Allogeneic bone marrow transplant GvHD model; format: in vivo, mouse; settings: allo-bone marrow transplant, compared with vehicle
Description: Allogeneic Bone marrow transplant: Recipient Balb/c mice were irradiated twice 3.75Gy (T=0 and T=4 h) in an X-ray source irradiator before transplantation at T=8 h. Treatment with antibiotics (Nopil) and analgesic (Dafalgan) was supplemented to drinking water 4 days before injection. Irradiated recipient Balb/c mice were transplanted with 5 million T cell depleted bone marrow+1 million splenocytes. Allogeneic recipient animals were treated with vehicle or 6-(4-tert-butylphenoxy)pyridin-3-amine subcutaneously at 20 mg/kg for two days immediately after allo-BM transplant, given a 10 days treatment holiday to recover body weight loss due to whole body irradiation and then treatment continued at 20 mg/kg. […] Animals were monitored for symptoms of GvHD development (severe body weight loss, alopecia and diarrhea.
Graft vs host disease (GvHD) is an example of alloimmune disease that develops following allo-hematopoetic stem cell transplant (allo-HSCT) in humans. The activity of 6-(4-tert-butylphenoxy)pyridin-3-amine and a calcineurin inhibitor Cyclosprin A was investigated in a mouse model of GvHD following allo-bone marrow transplant. In this model, T cell depleted bone marrow cells (TCD-BM)+splenocytes from C57Bl6 mice were transplanted into irradiated Balb/c mice.

Compound | GvHD clinical score: Body weight loss (D59) [1] | GvHD clinical score: Paleness (D59) [1] | GvHD clinical score: Activity score [1] | GvHD clinical score: Skin integrity (day 45) [1] | GvHD clinical score: Posture (D59) [1] | GvHD clinical score: Fur texture (day 45) [1] | Cumulative GvHD score [1] | expansion of Treg cells [2] [%] | Percentage inhibition of CD4 T cells (proliferation) [3] [%] | Percentage inhibition of CD8 T cells (proliferation) [4] [%] | Percentage downregulation of IL-6 [5] [%] | Percentage downregulation of IL-17 [6] [%] | Percentage downregulation of IFNG [7] [%] | prevention of GvHD development (in words) [8]
CC(C)(C)c1ccc(Oc2ccc(N)cn2)cc1 [6-(4-tert-butylphenoxy)pyridin-3-amine/6-(4-tert-butylphenox] | 0.9 | 1.2 | 0.5 | 0.7 | 0.7 | 1.2 | 5.2 |  |  |  |  |  |  | 
Cc1nc(Oc2ccc(-c3ccc(F)cc3)cc2)ccc1N [6-((4′-fluoro-[1,1′-biphenyl]-4-yl)oxy)-2-methylpyridin-3-amine] |  |  |  |  |  |  |  | 120 | 40 | 74 | 66 | 78 | 41 | 
CC(C)(C)c1ccc(Oc2ccc(N)cn2)cc1 [DMSO/6-(4-tert-butylphenoxy)pyridin-3-amine] | 1.35 | 1.2 | 0.5 | 0.65 | 1.3 | 0.95 | 5.95 |  |  |  |  |  |  | 
N#CC[C@H](C1CCCC1)n1cc(-c2ncnc3[nH]ccc23)cn1 [DMSO/Ruxolitinib, Ruxolitinib, reference compound] | 1.6 | 0.9 | 0.9 | 1.2 | 1.2 | 1.1 | 6.9 |  |  |  |  |  |  | 
CNc1ccc(Oc2ccc(-c3cncs3)cc2)nc1 [N-methyl-6-(4-(thiazol-5-yl)phenoxy)pyridin-3-amine] |  |  |  |  |  |  |  |  |  |  | 80 | 85 | 38 | 
Cyclosporin A [reference compound] |  |  |  |  |  |  |  |  |  |  |  |  |  | did not perform better than vehicle treated animals
